Reference: paper PMC7259638, “Characterization of the intestinal absorption of morroniside from Cornus officinalis Sieb. et Zucc via a Caco-2 cell monolayer model” (PLoS ONE, 2020)
Like-named read-outs stand apart in the source and are kept apart here.

Experiments:
Assay type in all cases: in vitro ADME, human
[1] = system: Caco-2 cell monolayers; test: Transport of morroniside across Caco-2 cell monolayers (bidirectional, concentration and pH); conditions: for PappAB AP-BL: AP to BL; for PappAB AP-BL / PappAB BL-AP: pH 7.4; for PappAB AP-BL / PappAB BL-AP / PappAB: 37 °C, n = 3; for PappAB BL-AP: BL to AP
Method: (§1) An initial stock solution of morroniside in methanol was prepared. The stock solution was then diluted with HBSS (pH = 7.4) and the final concentration of methanol in HBSS remained at 0.5%. […] Caco-2 cells were seeded at a density of 5 × 10^4 cells/cm^2 in a 12-well plate. The transepithelial electrical resistance (TEER) value was measured with a Millipore ERS voltameter (Burlington, MA, USA) in order to evaluate and determine monolayer integrity. The monolayers were ready for experiments 19 to 22 days after seeding.
(§2) During incubation, the culture medium was refreshed every other day. The culture medium was discarded, and 500 μL of HBSS was added to each well and incubated for 20 min at 37 °C. Afterward, each well was rinsed two times with HBSS at 37 °C. Three concentrations of morroniside (5, 25 and 100 μM) were added to either the apical (AP, 0.5 mL) or basolateral side (BL, 1.5 mL), wheras the receiving chamber contained the corresponding volume of blank HBSS medium (pH = 7.4). Incubation was performed at 37 °C for 180 min, with shaking at 50 rpm. To assess drug transport from the AP to BL side, after incubation for 5, 15, 30, 45, 60, 90, 120 or 180 min, 50 μL of the solution from the BL or AP side was collected, and replaced with an equal volume of HBSS. To study the effect of pH on morroniside (5, 25 and 100 μM) transport, the experiments were performed in HBSS, which was adjusted to pH 6.0 or pH 7.4 on the AP side depending on the experiment, and to pH 7.4 on the BL side at 37 °C.
(§3) UPLC-MS/MS data acquisition was performed using Analyst 1.5.2 and MultiQuant 2.1.1 software (Applied Biosystems). All data are shown as the mean ± standard deviation, n = 3. The data were analyzed using SPSS 20.0. In the Caco-2 cell model, the rate of transport was obtained from the amount transported versus the time curve using linear regression. The permeability coefficient of each compound was calculated using the following equation: Papp = (dQ/dt)/(A·C0).
(§4) where, dQ/dt is the rate of drug transport, C0 is the initial concentration of the compound in the donor chamber and A represents the surface area of the cell monolayer. The efflux ratio P was determined by calculating the ratio of Papp in the secretory (BA) direction divided by that in the absorptive (AB) direction, according to the following equation: P=PappBA/PappAB

[2] = as above; conditions: human
Method: as §1, §2, §3, §4

[3] = system: BCRP; test: Effects of influx/efflux transporter inhibitors and CO on morroniside transport in Caco-2 cell monolayers; conditions: human, 25 μM morroniside
Method: as §1, §2
(§5) Efflux and influx transporters were investigated for their effects on the transport flux of morroniside. Several ATP-binding cassette transporter inhibitors, including one p-glycoprotein (P-gp) inhibitor (100μM verapamil); one multidrug resistance- related protein (MRP) inhibitor (100 μM, MK571), one multidrug resistance- related protein 3 (MRP3, the main BL MRP) inhibitor ([…]) and one multidrug resistance- related protein 2 (MRP2, the main AP MRP) inhibitor (200μM indomethacin); and one breast cancer resistance protein (BCRP) inhibitor (25μM apigenin) were used to determine the transporters involved in the efflux transport of morroniside. The inhibition of the influx transport of morroniside transport across the Caco-2 cell monolayer was investigated by the addition of 50 μM sodium vanadate and cimetidine to evaluate the selectivity of Na/K-ATPase. The pH and temperature conditions of this assay were 7.4 and 37 °C, respectively.
as §3, §4

[4] = system: P-gp; test: as above; conditions: human, Caco-2, pH 7.4, with verapamil 100 μM, 25 μM morroniside; with verapamil 100 μM (P-gp inhibitor)
Method: as §1, §2, §5, §3, §4

[5] = system: Na+/K+ pump (Na/K-ATPase); test: as above; conditions: human, Caco-2, pH 7.4, with sodium vanadate 50 μM, with 50 μM sodium vanadate (Na+/K+ pump); read-out: P (efflux ratio PappBA/PappAB)
Method: as §1, §2, §5, §3, §4

[6] = system: MRP3; test: as above; conditions: human, 25 μM morroniside
Method: as §1, §2, §5, §3, §4

[7] = system: MRP2; test: as above; conditions: human, 25 μM morroniside
Method: as §1, §2, §5, §3, §4

[8] = system: MRP; test: as above; conditions: human, Caco-2, pH 7.4, with MK571 100 μM, 25 μM morroniside
Method: as §1, §2, §5, §3, §4

[9] = as above; conditions: human; for efflux ratio at 180 min, 25 μM: read-out: Efflux ratio P
Method: as §1, §2, §5, §3, §4

[10] = system: OATs; test: as above; conditions: human, Caco-2, pH 7.4, with cimetidine 50 μM, with 50 μM cimetidine (OATs); read-out: P (efflux ratio PappBA/PappAB)
Method: as §1, §2, §5, §3, §4

COC(=O)C1=CO[C@@H](O[C@@H]2O[C@H](CO)[C@@H](O)[C@H](O)[C@H]2O)[C@@H]2[C@H](C)O[C@@H](O)C[C@H]12 [morroniside, Morroniside]
PappAB AP-BL ([1]; 5 μM morroniside): 2.66±0.60 ×10^-6cm/s | PappAB BL-AP ([1]; 5 μM morroniside): 4.10±0.86 ×10^-6cm/s | PappAB AP-BL ([1]; 100 μM morroniside): 1.59±0.41 ×10^-6cm/s | PappAB BL-AP ([1]; 100 μM morroniside): 2.67±0.48 ×10^-6cm/s | PappAB ([1]; AP side pH 6.0, BL side pH 7.4, 25μM morroniside): 0.61±0.15 ×10^-6cm/s | PappAB ([1]; AP side pH 7.4, 100μM morroniside): 1.86±0.33 ×10^-6cm/s | intestinal absorption assessed from Papp level ([1]; Papp values at the level of 10^−6, Caco-2 transwell): poor intestinal absorption | PappAB at pH 7.4 compared with pH 6.0 ([1]; three concentrations (5, 25, 100 μM), p<0.05): significantly higher | Papp A→B at 180 min, 5 μM ([2]; Caco-2, AP side pH 6.0, BL side pH 7.4, 5μM morroniside, 37 °C, n = 3, read-out: PappAB): 0.55 ± 0.07 ×10⁻⁶ cm/s | Papp A→B at 180 min, 100 μM ([2]; Caco-2, AP side pH 6.0, BL side pH 7.4, 100μM morroniside, 37 °C, n = 3, read-out: PappAB): 0.62 ± 0.1 ×10⁻⁶ cm/s | Papp A→B at 180 min, 5 μM ([2]; Caco-2, pH 7.4, 5 μM morroniside, AP to BL, over 3 h, read-out: Papp (AP to BL)): 2.66 ×10⁻⁶ cm/s | Papp A→B at 180 min, 25 μM ([2]; Caco-2, pH 7.4, 25 μM morroniside, AP to BL, pH 7.4, 37 °C, n = 3, read-out: PappAB AP-BL): 1.83 ± 0.65 ×10⁻⁶ cm/s | Papp A→B at 180 min, 100 μM ([2]; Caco-2, pH 7.4, 100 μM morroniside, AP to BL, over 3 h, read-out: Papp (AP to BL)): 1.59 ×10⁻⁶ cm/s | Papp A→B at 180 min, 5 μM ([2]; Caco-2, pH 7.4, AP side pH 7.4, 5μM morroniside, 37 °C, n = 3, read-out: PappAB): 1.88 ± 0.49 ×10⁻⁶ cm/s | Papp A→B at 180 min, 25 μM ([2]; Caco-2, pH 7.4, AP side pH 7.4, 25μM morroniside, 37 °C, n = 3, read-out: PappAB): 1.92 ± 0.52 ×10⁻⁶ cm/s | Papp A→B at 180 min ([2]; Caco-2, pH 7.4, range over 5, 25 and 100 μM, AP-to-BL, read-out: apparent permeability coefficient (Papp) AP-to-BL): 1.59 to 2.66 ×10⁻⁶ cm/s | Papp B→A at 180 min, 5 μM ([2]; Caco-2, pH 7.4, 5 μM morroniside, BL to AP, over 3 h): 4.1 ×10⁻⁶ cm/s | Papp B→A at 180 min, 100 μM ([2]; Caco-2, pH 7.4, 100 μM morroniside, BL to AP, over 3 h): 2.67 ×10⁻⁶ cm/s | Papp B→A at 180 min ([2]; Caco-2, pH 7.4, range over 5, 25 and 100 μM, BL-to-AP, read-out: apparent permeability coefficient (Papp) BL-to-AP): 2.67 to 4.1 ×10⁻⁶ cm/s | Papp B→A at 180 min, 25 μM ([2]; Caco-2, 25 μM morroniside, BL to AP, pH 7.4, 37 °C, n = 3, read-out: PappAB BL-AP): 2.92 ± 0.63 ×10⁻⁶ cm/s | efflux ratio at 180 min, 25 μM ([3]; Caco-2, pH 7.4, with apigenin 25 μM, with apigenin 25 μM (BCRP inhibitor), read-out: Efflux ratio P): 0.45 | Papp B→A at 180 min, 25 μM ([3]; Caco-2, pH 7.4, BL to AP, with apigenin 25 μM, read-out: PappBA (mean)): 2.78 ×10⁻⁶ cm/s | efflux ratio at 180 min, 25 μM [4]: 1.59 | efflux ratio at 180 min [5]: 1.65 | efflux ratio at 180 min, 25 μM ([6]; Caco-2, pH 7.4, with benzbromarone 50 μM, with benzbromarone 50 μM (MRP3 inhibitor), read-out: Efflux ratio P): 1.72 | Papp A→B at 180 min, 25 μM ([6]; Caco-2, pH 7.4, AP to BL, with benzbromarone 50 μM, read-out: PappAB (mean)): 1.77 ×10⁻⁶ cm/s | efflux ratio at 180 min, 25 μM ([7]; Caco-2, pH 7.4, with indomethacin 200 μM, with indomethacin 200 μM (MRP2 inhibitor), read-out: Efflux ratio P): 0.26 | Papp A→B at 180 min, 25 μM ([7]; Caco-2, pH 7.4, AP to BL, with indomethacin 200 μM, read-out: PappAB (mean)): 12.8 ×10⁻⁶ cm/s | Papp B→A at 180 min, 25 μM ([7]; Caco-2, pH 7.4, BL to AP, with indomethacin 200 μM, read-out: PappBA (mean)): 3.3 ×10⁻⁶ cm/s | efflux ratio at 180 min, 25 μM ([8]; with MK 571 100 μM (MRP inhibitor), read-out: Efflux ratio P): 0.4 | Papp A→B at 180 min, 25 μM ([8]; AP to BL, with MK 571 100 μM, read-out: PappAB (mean)): 7.55 ×10⁻⁶ cm/s | Papp B→A at 180 min, 25 μM ([8]; BL to AP, with MK 571 100 μM, read-out: PappBA (mean)): 3.01 ×10⁻⁶ cm/s | efflux ratio at 180 min, 25 μM ([9]; Caco-2, pH 7.4, 25 μM morroniside, Control (no inhibitor)): 1.61 | efflux ratio at 180 min ([9]; Caco-2, pH 7.4, Control (no inhibitor), influx transporter experiment, read-out: P (efflux ratio PappBA/PappAB)): 1.6 | efflux ratio at 180 min, 25 μM ([9]; Caco-2, pH 7.4, morroniside given as CO 0.63 mg/mL (containing 25 μM morroniside)): 0.49 | Papp B→A at 180 min ([9]; Caco-2, Control (no inhibitor), influx transporter experiment, pH 7.4, 37 °C): 3.06 ± 0.6 ×10⁻⁶ cm/s | efflux ratio at 180 min [10]: 1.7
